Experiment: Accelerated stability of calcium (6S) N5-methyl-tetrahydrofolate products (HPLC related substances and assay)
Type: physicochemical
Conditions: 25° C. and 40% relative humidity
Experimental: Determination of related substances of calcium (6S)—N^5-methyl-(5,6,7,8)-tetrahydrofolate by HPLC method
25±3 mg of (6S)-5-methyl-tetrahydrofolic acid calcium salt calculated on dry base were placed in a 50 ml volumetric flask and added with 320 μl of acid ascorbic solution and water until the final volume was reached. The solution was transferred in a HPLC vial and the sample injected immediately.
Analysis: 10 μl of the sample solution were Injected, the chromatogram recorded (analytical wavelength 280±16 nm) and the peak response measured.
the liquid chromatograph was equipped with a Hypersil ODS column (length 250 mm, ID 4 mm, particle size 5 μm). The column was coupled with a diode array detector for the detection wavelength of 280±16 nm
Determination of assay by HPLC of calcium (6RS) and (6S) N^5-methyl-tetrahydrofolate
75-85 mg of sample were dissolved in 200 ml water within a 250 ml volumetric flask. 1 ml of the ascorbic acid solution was added and dilute to 250 ml with water. A total of three sample solutions were prepared.
The HPLC system was verified and calibrated by injecting the standard solutions. Once each of the three prepared sample solutions were injected followed by one standard solution as calibration control.
The liquid chromatograph was equipped with an analytical column such ACE 5 C18, 250 mm×2.1 mm, with particle size 5 μm.
acetonitrile 12%, phosphate buffer pH 6.5 80%, methanol+2-mercaptoethanol 8%.
column temperature: 25° C., isocratic mode, flow rate: 0.41 ml/min, injection volume: 5 μl, run time: 13.5 min, analytical wavelength: 290 nm.
The stability of the complexes according to the present invention prepared by spray-drying or lyophilization as described in examples 5 and 7 was tested in comparison with the stability of (6S)—N^5-methyl-tetrahydrofolate calcium salt alone. Preparations obtained through different technologies, such as evaporation of the solvent from the solution, as reported in examples 2, 3 and 4, were also assessed for stability. Accelarated stability experiments at 25° C. and 40% relative humidity were carried out.

Compound: CN1c2c(nc(N)[nH]c2=O)NC[C@@H]1CNc1ccc(C(=O)N[C@@H](CCC(=O)[O-])C(=O)[O-])cc1.[Ca+2] [Product 5MeTHF, (6S)—N^5-methyl-(5,6,7,8)-tetrahydrofolate calcium salt]
- Decrease of 5MeTHF % content (4 weeks): −2.70%
- Increase of D2 % content (4 weeks): 1.30%
- Decrease of 5MeTHF % content (12 weeks): −2.80%
- Increase of D2 % content (12 weeks): 1.40%
- Decrease of 5MeTHF % content (24 weeks): −5.6%
- Increase of D2 % content (24 weeks): 2.3%

Source: patent publication US9163025B2, “Stable complexes of an alkaline earth metal salt of N5-methyl-tetrahydrofolic acid and a polyol” (CERBIOS-PHARMA SA, priority 2013, dated 2015)
